The values below come from ChEMBL document CHEMBL4340530, “Peptide-based covalent inhibitors of MALT1 paracaspase” (Bioorg Med Chem Lett, 2019).

The subject of one experiment is OCI-Ly3. The experiment can be described thus: Antiproliferative activity against human OCI-LY3 cells assessed as growth inhibition treated every 48 hrs measured after 96 hrs by CellTiter-Glo assay. In kind it is functional.
For experiment [1], the target named is T1, Mucosa-associated lymphoid tissue lymphoma translocation protein 1 (Homo sapiens) (UniProt Q9UDY8).
T1 sequence (whole entry): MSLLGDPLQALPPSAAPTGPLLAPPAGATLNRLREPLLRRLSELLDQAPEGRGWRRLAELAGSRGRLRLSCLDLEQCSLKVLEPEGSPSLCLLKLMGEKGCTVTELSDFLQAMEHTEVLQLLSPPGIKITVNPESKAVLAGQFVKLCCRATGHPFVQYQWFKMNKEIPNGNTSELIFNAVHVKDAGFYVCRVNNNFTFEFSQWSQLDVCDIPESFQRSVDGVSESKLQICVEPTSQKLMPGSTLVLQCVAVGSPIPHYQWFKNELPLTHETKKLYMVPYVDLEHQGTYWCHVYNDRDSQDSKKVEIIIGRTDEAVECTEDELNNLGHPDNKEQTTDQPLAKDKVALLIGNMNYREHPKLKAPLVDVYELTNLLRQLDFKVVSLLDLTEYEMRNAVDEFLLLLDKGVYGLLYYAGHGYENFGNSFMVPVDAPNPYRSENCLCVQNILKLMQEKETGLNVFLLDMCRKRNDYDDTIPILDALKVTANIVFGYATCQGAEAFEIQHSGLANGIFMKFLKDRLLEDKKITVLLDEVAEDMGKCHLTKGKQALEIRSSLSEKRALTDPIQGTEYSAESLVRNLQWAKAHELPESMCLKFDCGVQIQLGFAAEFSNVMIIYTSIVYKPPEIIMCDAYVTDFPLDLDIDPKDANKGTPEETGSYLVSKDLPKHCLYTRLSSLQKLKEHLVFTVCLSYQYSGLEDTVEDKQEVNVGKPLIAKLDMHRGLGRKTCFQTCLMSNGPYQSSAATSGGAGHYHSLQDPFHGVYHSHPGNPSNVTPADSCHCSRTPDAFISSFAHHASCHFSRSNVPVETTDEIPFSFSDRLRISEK
The experiment can be described thus: Inhibition of MALT1 (unknown origin) expressed in PMA/IO-stimulated human Raji Glosensor cells by reporter gene assay. The experiment is classed as cell-based.

Another experiment relates to OCI-Ly1. The experiment can be described thus: Antiproliferative activity against human OCI-LY1 cells up to 20 uM. The experiment is classed as functional, cell-based.
The target in experiment [2] is T2, Mucosa-associated lymphoid tissue lymphoma translocation protein 1 (Homo sapiens, UniProt Q9UDY8).
T2 sequence (Q9UDY8 whole entry): T1 sequence (whole entry)
The experiment can be described thus: Inhibition of recombinant LZ-fused MALT1 (340 to 789 residues) (unknown origin) using Ac-LRSR-AMC as substrate by fluorescence assay.

Calls of active or inactive are those of the source. The calls are words filed in the database; no cut-off is given here. Numbered stars: 1 amine (or outer) side, 2 acyl side, 3 side chain; on linkers, the order of the positions; unused ones are H or OH. Square brackets hold non-standard residues; d marks the D form. Peptide text beside a SMILES is read from it. * marks the point of attachment. cisHyp = O=C(O)[C@@H]1C[C@H](O)CN1; NMeR = CN[C@@H](CCCNC(=N)N)C(=O)O; Hyp = O=C(O)[C@@H]1C[C@@H](O)CN1; Chg = N[C@H](C(=O)O)C1CCCCC1; Phg = N[C@H](C(=O)O)c1ccccc1; Tle = CC(C)(C)[C@H](N)C(=O)O; NMeV = CN[C@H](C(=O)O)C(C)C; αMeP = C[C@@]1(C(=O)O)CCCN1; Pip = O=C(O)[C@@H]1CCCCN1; Ac6c = NC1(C(=O)O)CCCCC1; Ac5c = NC1(C(=O)O)CCCC1; Cbz = O=C(OCc1ccccc1)*; CO = O=C([*:1])[*:2]; Bz = O=C(c1ccccc1)*; NHPh = c1ccc(N*)cc1; CH2F = FC* A value given as a limit tells only on which side of the number the result lay.

In the case of `CC(C)[C@H](NC(=O)c1ccc(C(F)(F)F)cc1)C(=O)N1CCC[C@H]1C(=O)N[C@@H](CCCNC(=N)N)C(=O)CF`, in the experiment with OCI-Ly3, the 50% growth inhibitory concentration (GI50) amounted to 120 nM.
Same read-out and setting: the figure for `N=C(N)NCCC[C@H](NC(=O)[C@@H]1CCCN1C(=O)C1(NC(=O)OCc2ccccc2)CCCC1)C(=O)CF` (Cbz-[Ac5c]-Pro-Arg-CH2F) is 4310 nM.
Still for that read-out and setting: next, `CC(C)[C@H](NC(=O)c1ccc(Br)cc1)C(=O)N1CCOC[C@H]1C(=O)N[C@@H](CCCNC(=N)N)C(=O)CF`: 460 nM; `N=C(N)NCCC[C@H](NC(=O)[C@@H]1CCCN1C(=O)[C@H](Cc1ccccc1)NC(=O)OCc1ccccc1)C(=O)CF`: 2200 nM.
`CC(C)[C@H](NC(=O)OCc1ccccc1)C(=O)N1C[C@@H](O)C[C@H]1C(=O)N[C@@H](CCCNC(=N)N)C(=O)CF` (Cbz-Val-[cisHyp]-Arg-CH2F) had a concentration for half-maximal inhibition (IC50) in experiment [1] of 239 nM. For the same compound, the 50% growth inhibitory concentration (GI50) in the experiment with OCI-Ly3 came out at 1070 nM.
With `N=C(N)NCCC[C@H](NC(=O)[C@@H]1CCCN1C(=O)[C@@H](NC(=O)OCc1ccccc1)c1ccccc1)C(=O)CF` (Cbz-[Phg]-Pro-Arg-CH2F), the GI50 in the experiment with OCI-Ly3 worked out at 8050 nM.
Same read-out and setting: next, `CC(C)[C@H](NC(=O)c1ccc(Br)cc1)C(=O)N1C[C@H](O)C[C@H]1C(=O)N[C@@H](CCCNC(=N)N)C(=O)CF`: 70 nM; `CC(C)c1ccc(C(=O)N[C@H](C(=O)N2CCC[C@H]2C(=O)N[C@@H](CCCNC(=N)N)C(=O)CF)C(C)C)cc1`: 270 nM.
`CC(C)[C@@H](C(=O)N1CCC[C@H]1C(=O)N[C@@H](CCCNC(=N)N)C(=O)CF)N(C)C(=O)OCc1ccccc1` (Cbz-[NMeV]-Pro-Arg-CH2F): in the experiment with OCI-Ly1, the outcome was inactive. The 50% growth inhibitory concentration (GI50) in the experiment with OCI-Ly3 is greater than 20000 nM.
With `N=C(N)NCCC[C@H](NC(=O)[C@@H]1CCCN1C(=O)[C@@H](NC(=O)OCc1ccccc1)C1CCCCC1)C(=O)CF` (Cbz-[Chg]-Pro-Arg-CH2F), in the experiment with OCI-Ly3, the GI50 is 1450 nM.
As to `CC(C)[C@H](NC(=O)OCc1ccccc1)C(=O)N1CCCC[C@H]1C(=O)N[C@@H](CCCNC(=N)N)C(=O)CF` (Cbz-Val-[Pip]-Arg-CH2F), the GI50 with OCI-Ly3 was 730 nM.
With `CN[C@H](C(=O)N1CCC[C@H]1C(=O)N[C@@H](CCCNC(=N)N)C(=O)CF)C(C)C` (H-[NMeV]-Pro-Arg-CH2F), the outcome with OCI-Ly1 was inactive. In the experiment with OCI-Ly3, the GI50 was greater than 20000 nM. In experiment [2], the Ki is greater than 200 nM.
With `CC(C)[C@H](NC(=O)Nc1ccc(Cl)cc1)C(=O)N1CCC[C@H]1C(=O)N[C@@H](CCCNC(=N)N)C(=O)CF`, the concentration for 50% growth inhibition (GI50) in the experiment with OCI-Ly3 amounted to 780 nM.
Same read-out and setting: next, `CC(C)C[C@H](NC(=O)OCc1ccccc1)C(=O)N1CCC[C@H]1C(=O)N[C@@H](CCCNC(=N)N)C(=O)CF` (Cbz-Leu-Pro-Arg-CH2F): 5490 nM.
The same measure, in the same setting: next, `CC(C)[C@H](NC(=O)c1ccc(C#N)cc1)C(=O)N1CCC[C@H]1C(=O)N[C@@H](CCCNC(=N)N)C(=O)CF`: 6660 nM; `CC(C)[C@H](NC(=O)c1ccc(Br)cc1)C(=O)N1CC[C@H]1C(=O)N[C@@H](CCCNC(=N)N)C(=O)CF`: 770 nM.
On the same count and under the same terms, the figure for `COc1ccc(C(=O)N[C@H](C(=O)N2CCC[C@H]2C(=O)N[C@@H](CCCNC(=N)N)C(=O)CF)C(C)C)cc1` is 1670 nM.
On to `N=C(N)NCCC[C@H](NC(=O)[C@@H]1CCCN1C(=O)C1(NC(=O)OCc2ccccc2)CCCCC1)C(=O)CF` (Cbz-[Ac6c]-Pro-Arg-CH2F), for which the GI50 in the experiment with OCI-Ly3 was found to be 6230 nM.
As to `CC(C)(C)[C@H](NC(=O)OCc1ccccc1)C(=O)N1CCC[C@H]1C(=O)N[C@@H](CCCNC(=N)N)C(=O)CF` (Cbz-[Tle]-Pro-Arg-CH2F), in the experiment with OCI-Ly3, the GI50 worked out at 1440 nM.
For `CC(C)[C@H](NC(=O)c1ccc(Br)cc1)C(=O)N1CCC[C@@H]1C(=O)N[C@@H](CCCNC(=N)N)C(=O)CF`, the midpoint of inhibition in experiment [1], the IC50, lay at 17500 nM. The concentration for 50% growth inhibition (GI50) in the experiment on OCI-Ly3 was greater than 20000 nM.
On to `N=C(N)NCCC[C@H](NC(=O)[C@@H]1C[C@@H](O)CN1C(=O)[C@@H](NC(=O)c1ccc(Br)cc1)C1CCCCC1)C(=O)CF`, for which the GI50 in the experiment on OCI-Ly3 came to 60 nM.
On the same count and under the same terms, next, `CC(C)[C@H](NC(=O)OCc1ccccc1)C(=O)N[C@@H](CO)C(=O)N[C@@H](CCCNC(=N)N)C(=O)CF`: 290 nM; `CC(C)[C@H](NC(=O)c1ccc(Cl)cc1)C(=O)N1CCC[C@H]1C(=O)N[C@@H](CCCNC(=N)N)C(=O)CF`: 1240 nM.
The same measure, in the same setting: next, `CC(C)[C@H](NC(=O)OCc1ccccc1)C(=O)N1CCC[C@@]1(C)C(=O)N[C@@H](CCCNC(=N)N)C(=O)CF` (Cbz-Val-[αMeP]-Arg-CH2F): 10500 nM.
Turning to `CC(C)[C@H](NC(=O)OCc1ccccc1)C(=O)N[C@@H](CCCNC(=N)N)C(=O)N1CCC[C@H]1C(=O)N[C@@H](CCCNC(=N)N)C(=O)CF`, the outcome in the experiment with OCI-Ly1 was inactive. Also, the concentration for 50% growth inhibition (GI50) in the experiment with OCI-Ly3 came out at 8220 nM. Further, the inhibition constant (Ki) in experiment [2] is 140 nM.
`CC(C)[C@H](NC(=O)OCc1ccccc1)C(=O)N1CCC[C@H]1C(=O)N(C)[C@@H](CCCNC(=N)N)C(=O)CF` (Cbz-Val-Pro-[NMeR]-CH2F): the result in the experiment on OCI-Ly1 was inactive. Moreover, the inhibition constant (Ki) in experiment [2] is greater than 5000 nM.
Regarding `CC(C)[C@H](NC(=O)c1ccccc1Br)C(=O)N1CCC[C@H]1C(=O)N[C@@H](CCCNC(=N)N)C(=O)CF`, the 50% growth inhibitory concentration (GI50) with OCI-Ly3 was 4240 nM.
`CC(C)[C@H](NC(=O)OCc1ccccc1)C(=O)N1C[C@H](O)C[C@H]1C(=O)N[C@@H](CCCNC(=N)N)C(=O)CF` (Cbz-Val-[Hyp]-Arg-CH2F) came in with an IC50 in experiment [1] of 209 nM. Also, the GI50 in the experiment on OCI-Ly3 came to 290 nM.
Turning to `CC(C)[C@H](NC(=O)c1cccc(Br)c1)C(=O)N1CCC[C@H]1C(=O)N[C@@H](CCCNC(=N)N)C(=O)CF`, the GI50 with OCI-Ly3 amounted to 530 nM.
`CC(C)C[C@H](NC(=O)OCc1ccccc1)C(=O)N[C@H](C(=O)N1CCC[C@H]1C(=O)N[C@@H](CCCNC(=N)N)C(=O)CF)C(C)C` (Cbz-LVPR-CH2F): in the experiment on OCI-Ly1, the result was inactive. For the same compound, the GI50 in the experiment on OCI-Ly3 came to 1050 nM. The Ki in experiment [2] came to 90 nM.
Regarding `CC(C)[C@H](NC(=O)Nc1ccccc1)C(=O)N1CCC[C@H]1C(=O)N[C@@H](CCCNC(=N)N)C(=O)CF` ({NHPh-CO}-Val-Pro-Arg-CH2F), the GI50 in the experiment with OCI-Ly3 worked out at 1520 nM.
The same measure, in the same setting: next, `CC[C@H](C)[C@H](NC(=O)OCc1ccccc1)C(=O)N1CCC[C@H]1C(=O)N[C@@H](CCCNC(=N)N)C(=O)CF` (Cbz-Ile-Pro-Arg-CH2F): 2440 nM.
`CC(C)[C@H](NC(=O)OCc1ccccc1)C(=O)N1CCC[C@H]1C(=O)N[C@@H](CCCNC(=N)N)C(=O)CF` (Cbz-Val-Pro-Arg-CH2F): in the experiment with OCI-Ly1, the result was inactive. Moreover, the GI50 in the experiment with OCI-Ly3 was 8520 nM.
Take `CC(C)[C@H](NC(=O)c1ccc(Br)cc1)C(=O)N1COC[C@H]1C(=O)N[C@@H](CCCNC(=N)N)C(=O)CF`: the GI50 with OCI-Ly3 turned out to be 120 nM.
Take `N=C(N)NCCC[C@H](NC(=O)[C@H](CO)NC(=O)[C@@H](NC(=O)c1ccc(Br)cc1)C1CCCCC1)C(=O)CF`: in the experiment on OCI-Ly3, the GI50 worked out at 240 nM.
With `N=C(N)NCCC[C@H](NC(=O)[C@@H]1CCCN1C(=O)[C@@H](NC(=O)c1ccc(Br)cc1)C1CCCCC1)C(=O)CF`, the GI50 in the experiment on OCI-Ly3 amounted to 130 nM.
The same measure, in the same setting: the figure for `CC(C)[C@H](NC(=O)c1ccccc1)C(=O)N1CCC[C@H]1C(=O)N[C@@H](CCCNC(=N)N)C(=O)CF` (Bz-Val-Pro-Arg-CH2F) is 660 nM; for `CC(C)[C@H](NC(=O)C1CCCCC1)C(=O)N1CCC[C@H]1C(=O)N[C@@H](CCCNC(=N)N)C(=O)CF` it is 940 nM.
